Structures are written as SMILES. Activity calls are given as the source filed them. The rule behind the calls is not given here.

The source of these data is ChEMBL document CHEMBL3392994, “Methoxyflavones from Stachys glutinosa with binding affinity to opioid receptors: in silico, in vitro, and in vivo studies” (J Nat Prod, 2015).

The target of test [1] is Delta-type opioid receptor (Mus musculus, UniProt P32300). The experiment in a line: Displacement of [3H]DPDPE from delta opioid receptor in CD1 mouse whole brain minus cerebellum membranes by liquid scintillation counting. The test is classed as tissue-based, Membrane.
The target in another test is Mu-type opioid receptor (Mus musculus, UniProt P42866). Nature of the test: Displacement of [3H]DAMGO from mu opioid receptor in CD1 mouse whole brain minus cerebellum membranes by liquid scintillation counting. In kind it is tissue-based, Membrane.
Test [2] is filed under the species Mus musculus. The experiment in a line: Selectivity ratio of Ki for delta opioid receptor in CD1 mouse whole brain minus cerebellum membranes to Ki for mu opioid receptor in CD1 mouse whole brain minus cerebellum membranes. The test is classed as tissue-based.
Test [3] has as its system Mus musculus. The experiment in a line: Inhibition of morphine-induced analgesia in CD1 mouse model at 80 mg/kg, ip pretreated 30 mins before 5 mg/kg, sc morphine injection and measured 30 to 120 mins after morphine treatment by tail-flick assay relative to control. In kind it is functional, organism-based.
The test system of test [4] is Mus musculus. Nature of the test: Analgesic activity in acute pain CD1 mouse model assessed as withdrawal latency from radiant heat source at 40 to 80 mg/kg, ip by tail-flick assay. The test is classed as functional, organism-based.
The subject of test [5] is Mus musculus. Nature of the test: Inhibition of morphine-induced analgesia in CD1 mouse model at 40 mg/kg, ip pretreated 30 mins before 5 mg/kg, sc morphine injection and measured 30 to 120 mins after morphine treatment by tail-flick assay relative to control. The test is classed as functional, organism-based.

In the case of `C=CC(C)(O)CC[C@@]1(C)[C@H](C)CC[C@]2(C)[C@@H]1C[C@@H](O)[C@H]1O[C@]12C` (stereo partly drawn), the Ki in test [1] was 25 µM; on Mu-type opioid receptor, greater than 50 µM.
Regarding `C=CC(C)(O)CC[C@@]1(C)[C@H](C)CC[C@@]2(C)C(C)=CC(=O)C[C@H]12` (stereo partly drawn), the inhibitory constant (Ki) in test [1] came out at 23.5 µM; on Mu-type opioid receptor it was 40.5 µM.
Regarding `COc1cc(-c2cc(=O)c3c(O)c(OC)c(OC)c(OC)c3o2)ccc1O`, the inhibitory constant (Ki) in test [1] was 37.5 µM; at Mu-type opioid receptor, greater than 50 µM.
For the compound `COc1ccc(-c2cc(=O)c3c(O)c(OC)c(O)cc3o2)cc1OC` [EUPATILIN], in the test listed under Mus musculus [2], the Ratio Ki stood at 0.43. Further, the values for the Ki (in test [1]; at Mu-type opioid receptor) were 12 µM and 28 µM, respectively.
For `COc1ccc(-c2cc(=O)c3c(O)c(OC)c(OC)c(OC)c3o2)cc1` [GARDENIN B], the Ki (in test [1]; on Mu-type opioid receptor) was greater than 50 µM each time.
Take `COc1c(OC)c(O)c2c(=O)cc(-c3ccc(O)c(O)c3)oc2c1OC` [SIDERITIFLAVONE]: the Ratio Ki in the test listed under Mus musculus [2] turned out to be 0.68. In addition, the Ki in test [1] was found to be 12.5 µM; at Mu-type opioid receptor, 18.5 µM.
Regarding `COc1ccc(-c2cc(=O)c3c(OC)c(OC)c(OC)c(OC)c3o2)cc1` [TANGERETIN], the Ratio Ki in the test filed under Mus musculus [2] amounted to 0.43. Further, the inhibition constant (Ki) in test [1] turned out to be 7 µM; on Mu-type opioid receptor it was 16.3 µM.
Regarding `COc1c(OC)c(O)c2c(=O)cc(-c3ccc(O)cc3)oc2c1OC` [XANTHOMICROL], the Ratio Ki in the test listed under Mus musculus [2] worked out at 4.36. For the same compound, the Ki is 3.6 µM in test [1] and 0.83 µM at Mu-type opioid receptor. For the same compound, in the test with Mus musculus [3], the inhibition result was “Active”. Further, the outcome in the test with Mus musculus [4] was inactive. Further, in the test with Mus musculus [5], the inhibition entry is “inactive”.
